# Assay results as given in patent publication US7964725B2, “Heteroarylbenzamide derivatives for use in the treatment of diabetes” (AstraZeneca AB, priority 2006, dated 2011).
# Tested on: not given
# Test: not given
# Conditions: not given
row,melting point,SMILES
1,~ 75 °C,"Cc1cnc(NC(=O)c2cc(Oc3cnc(C(=O)N(C)C)cn3)cc(O[C@@H](C)COC(F)F)c2)cn1 [Example 2, 5-[3-[(2S)-1-(difluoromethoxy)propan-2-yl]oxy-5-[(5-methylpyrazin-2-yl)carbamoyl]phenoxy]-N,N-dimethyl-pyrazine-2-carboxamide]"

# Biological target: T1, recombinant human pancreatic GLK (Homo sapiens, UniProt P35557)
# T1 construct: 6-His (N); made in house; host or cells: E. coli BL21
# T1 sequence (P35557 1-465): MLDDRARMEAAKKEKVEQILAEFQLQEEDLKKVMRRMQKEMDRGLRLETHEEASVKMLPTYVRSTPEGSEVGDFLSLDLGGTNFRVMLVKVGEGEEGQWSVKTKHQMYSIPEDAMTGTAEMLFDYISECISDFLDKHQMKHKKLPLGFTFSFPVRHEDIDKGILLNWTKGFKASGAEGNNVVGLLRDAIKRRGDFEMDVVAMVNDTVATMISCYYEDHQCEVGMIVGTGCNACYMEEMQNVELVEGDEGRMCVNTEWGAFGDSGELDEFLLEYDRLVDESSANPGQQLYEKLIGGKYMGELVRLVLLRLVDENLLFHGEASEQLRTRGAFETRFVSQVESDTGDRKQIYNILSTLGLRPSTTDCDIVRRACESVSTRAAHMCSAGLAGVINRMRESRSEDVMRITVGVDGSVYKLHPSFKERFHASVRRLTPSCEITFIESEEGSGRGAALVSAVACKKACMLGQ
# Test: Enzymatic activity: activation of glucokinase in the absence of GLKRP
# Type: biochemical
# Conditions: G-6-P dehydrogenase NADP/NADPH coupled assay, OD 340 nm
# Method: Enzymatic activity of recombinant human pancreatic GLK may be measured by incubating GLK, ATP and glucose. The rate of product formation may be determined by coupling the assay to a G-6-P dehydrogenase, NADP/NADPH system and measuring the linear increase with time of optical density at 340 nm Brocklehurst et al (Diabetes 2004, 53, 535-541). Activation of GLK by compounds can be assessed using this assay in the presence or absence of GLKRP as described in Brocklehurst et al (Diabetes 2004, 53, 535-541).
# Human GLK and GLKRP cDNA was obtained by PCR from human pancreatic and hepatic mRNA respectively, using established techniques described in Sambrook J, Fritsch E F & Maniatis T, 1989. PCR primers were designed according to the GLK and GLKRP cDNA sequences shown in Tanizawa et al., Proc Natl Acad Sci 1991 August 15; 88(16):7294-7 and Warner et al., Mamm Genome. 1995 August; 6(8):532-6.
# GLK was expressed from the vector pTB375NBSE in E. coli BL21 cells, producing a recombinant protein containing a 6-His tag immediately adjacent to the N-terminal methionine. Alternatively, another suitable vector is pET21(+)DNA, Novagen, Cat number 697703. The 6-His tag was used to allow purification of the recombinant protein on a column packed with nickel-nitrilotriacetic acid agarose purchased from Qiagen (cat no 30250).
row,SMILES,EC50 [nM]
1,"Cc1cnc(NC(=O)c2cc(Oc3ccc(S(C)(=O)=O)nc3)cc(O[C@@H](C)COC(F)F)c2)cn1 [Example 1, 3-[(2S)-1-(difluoromethoxy)propan-2-yl]oxy-N-(5-methylpyrazin-2-yl)-5-(6-methylsulfonylpyridin-3-yl)oxy-benzamide]",69
2,"C[C@@H](COC(F)F)Oc1cc(Oc2cnc(C(=O)N(C)C)cn2)cc(C(=O)Nc2ccn(C)n2)c1 [Example 5, 5-[3-[(2S)-1-(difluoromethoxy)propan-2-yl]oxy-5-[(1-methylpyrazol-3-yl)carbamoyl]phenoxy]-N,N-dimethyl-pyrazine-2-carboxamide]",79
3,"C[C@@H](COC(F)F)Oc1cc(Oc2ccc(S(C)(=O)=O)nc2)cc(C(=O)Nc2ccn(C)n2)c1 [Example 6, 3-[(2S)-1-(difluoromethoxy)propan-2-yl]oxy-N-(1-methylpyrazol-3-yl)-5-(6-methylsulfonylpyridin-3-yl)oxy-benzamide]",77

# These reach a lower EC50. Values come first.
row,EC50 [nM],SMILES
1,55,"Cc1cnc(NC(=O)c2cc(Oc3cnc(C(=O)N(C)C)cn3)cc(O[C@@H](C)COC(F)F)c2)cn1 [Example 2, 5-[3-[(2S)-1-(difluoromethoxy)propan-2-yl]oxy-5-[(5-methylpyrazin-2-yl)carbamoyl]phenoxy]-N,N-dimethyl-pyrazine-2-carboxamide]"
2,65,"C[C@@H](COC(F)F)Oc1cc(Oc2cnc(C(=O)N(C)C)cn2)cc(C(=O)Nc2cc[nH]n2)c1 [Example 3, 5-[3-[(2S)-1-(Difluoromethoxy)propan-2-yl]oxy-5-(1H-pyrazol-3-ylcarbamoyl)phenoxy]-N,N-dimethyl-pyrazine-2-carboxamide]"
3,33,"C[C@@H](COC(F)F)Oc1cc(Oc2ccc(S(C)(=O)=O)nc2)cc(C(=O)Nc2cc[nH]n2)c1 [Example 4, 3-[(2S)-1-(difluoromethoxy)propan-2-yl]oxy-5-(6-methylsulfonylpyridin-3-yl)oxy-N-(1H-pyrazol-3-yl)benzamide]"
